Experimental data reported in patent publication US20120029083A1, “POLYMORPHIC FORMS OF ALISKIREN HEMIFUMARATE AND PROCESS FOR PREPARATION THEREOF” (Teva Pharmaceutical Industries, Ltd., priority 2007, published 2012).
Like-named read-outs stand apart in the source and are kept apart here.

Settings: pressed at 2 tons for 1 minute
Method: ARL X-ray powder diffractometer model X′TRA-030, Peltier detector, round standard aluminum sample holder with round zero background quartz plate (or silicon plate in the case of Form XIV) was used. The cathode is CuKα radiation, λ=1.5418 Å. Scanning parameters: Range: 2-40°2θ, continuous Scan, Rate: 3 deg/min. The accuracy of peak positions is defined as +/−0.2° due to experimental differences like instrumentations, and sample preparations.
The formulation was mixed and pressed to a tablet. The applied pressure was 2 tons for 1 minute.
The formulation is mixed and pressed to a tablet. The applied pressure is 2 tons for 1 minute.

COCCCOc1cc(C[C@@H](C[C@H](N)[C@@H](O)C[C@H](C(=O)NCC(C)(C)C(N)=O)C(C)C)C(C)C)ccc1OC.COCCCOc1cc(C[C@@H](C[C@H](N)[C@@H](O)C[C@H](C(=O)NCC(C)(C)C(N)=O)C(C)C)C(C)C)ccc1OC.O=C(O)/C=C/C(=O)O [amorphous aliskiren hemifumarate, (2S,4S,5S,7S)-N-(2-Carbamoyl-2-methylpropyl)-5-amino-4-hydroxy-2,7-diisopropyl-8-[4-methoxy-3-(3-methoxypropoxy)phenyl]-octanamide hemifumarate]
conversion of amorphous form to a crystalline phase in pressed tablet (XRPD) (formulation Example 67 (microcrystalline cellulose, PVP, crosspovidone, aerosil 200, Mg stearate)): No conversion of the amorphous Aliskiren to a crystalline phase | conversion of amorphous form to a crystalline phase in pressed tablet (XRPD) (formulation Example 68 (lactose monohydrate, PVP, crosspovidone, Mg stearate), written in present tense): No conversion of the amorphous Aliskiren to a crystalline phase
